Laboratory results: patent US9958451B2, “Near-infrared fluorescent dyes with large stokes shifts” (Portland State University, priority 2011, dated 2018)
Several values for one entry are separate records, joined by “and”; a condition that tells them apart may be missing. Equal entries are not always repeated. Marks after values point to notes of the source that are not given here.

Experiments:
[1] = Quantum yield in 10:90 DMSO:aqueous solutions; format: physicochemical
Experimental: The quantum yield of yellow-orange emitting 16a was 0.4649, 40 times greater than the corresponding neutral compound 15a. It was slightly higher than the yellow-green emitting neutral compound 20a, and >2 times higher than orange-red emitting anion 20c. The compounds (7.5 μM) were analyzed in 10:90 DMSO:aqueous solutions. Fluorescence emission was readily visible in a darkened room when the solutions were excited from below with 3-watt megaMAX 505 nm ALS system. The emission-enhancing properties afforded through the combination of the 3-1 transposition and methylation is in contrast to previously reported methyl ethers of seminaphthofluorescein compounds.

[2] = Saccharide sensing, response to ribose; conditions: DMSO:buffer 1:1, entire concentration range
Experimental: (§1) Solvents including MeCN, MeOH, EtOH, DMSO and buffer were initially screened for sugar sensing. […] DMSO mixtures were chosen for further studies.
(§2) The final pH 7.4 phosphate buffer concentration was 12.5 mM.

[3] = Spectral properties of rhodamine bis-boronic acids and precursors in DMSO:buffer; format: physicochemical; set-up: Brightness: scale not given here; conditions: for Quenching of emission (PET) of the free boronic acid: DMSO buffer 1:9
Experimental: Characterization: The spectral properties of compounds 50-53 were determined. Absorption and fluorescence spectra of solutions of the rhodamine bis-boronic acids 51 and 53, and their respective precursors 50 and 52, are shown in FIGS. 27A-C (in DMSO:buffer 1:9) and 27D-F (DMSO:buffer 1:1). […] Excitation and emission spectra were normalized to their absorbance at the excitation wavelength, and are proportional to quantum yield.

[4] = Saccharide sensing, response to fructose
Experimental: as §1, §2

[5] = Fluorescence emission spectra, 15 μM in 90% aqueous, 10% DMSO; format: physicochemical
Experimental: Compounds 21 and 7 also were characterized by their fluorescence emission spectra. Fluorescence was measured using 15 μM solutions of each compound in a solution that was 90% aqueous, 10% DMSO. For compound 21, the longest wavelength emission observed from the dianions occurred near 680 nm at pH 9. For compound 7 (transposed), the longest wavelength emission observed from the monoanion occurred near 800 nm at pH 9.
Compounds 22 and 8 also were characterized by their fluorescence emission spectra. Fluorescence was measured using 15 μM solutions of each compound in a solution that was 90% aqueous, 10% DMSO For compound 22, the longest wavelength emission observed from the anion occurred near 690 nm at pH 9. […] Given the greater than 800 nm absorbance peak and the typically large Stokes shifts observed in this class of compounds, it is likely that the emission was beyond the working range of the instrument (>850 nm).
Compounds 20 and 15a also were characterized by their fluorescence emission spectra. Fluorescence was measured using 15 μM solutions of each compound in a solution that was 90% aqueous, 10% DMSO. For compound 20a, the longest wavelength emission observed from its corresponding anion, compound 20c, occurred near 640 nm in NaOH (pH 12). For compound 15a (transposed), the longest wavelength emission observed from the corresponding anion, compound 15h, occurred near 760 nm in NaOH.
Compound 15b also was characterized by its fluorescence emission spectrum and compared to C.SNARF-5. Fluorescence was measured using a 15 μM solution of compound 15b in a solution that was 90% aqueous, 10% DMSO. For C.SNARF-5, the longest wavelength emission observed from the anion occurred near 632 nm (Whitaker et al., Anal. Biochem. 1991, 194, 330-344). For compound 15b (transposed), the longest wavelength emission observed from the phenoxide occurred near 770 nm.
Fluorescence was measured using a 15 μM solution of compound 15d in a solution that was 90% aqueous, 10% DMSO. […] For compound 15d (transposed), the longest wavelength emission observed from the phenoxide occurred near 780 nm (NaOH, pH 12).
Compounds 20b and 15g also were characterized by their fluorescence emission spectra. Fluorescence was measured using 15 μM solutions of each compound in a solution that was 90% aqueous, 10% DMSO. For compound 20b, the longest wavelength emission observed from the cation occurred near 640 nm at pH 7.4. For compound 15g (transposed), the longest wavelength emission observed from the cation occurred near 770 nm at pH 7.4.

[6] = UV-visible absorbance spectroscopy, 15 μM in 90% aqueous, 10% DMSO; format: physicochemical; conditions: 90% aqueous 10% DMSO
Experimental: Compounds 21 and 7 were characterized by UV-visible spectroscopy (FIG. 15). Absorbance was measured using 15 μM solutions of each compound in a solution that was 90% aqueous, 10% DMSO. The peaks at 600 nm (light dashed line) and 675 nm (light solid line) represent the dianions of compounds 21 and 7, respectively, in NaOH (pH 12). The peaks at 590 nm (heavy dashed line) and 650 nm (heavy solid line) represent a mix of mono- and dianions of compound 21 at pH 7.4 and predominantly monoanions of compound 7 at pH 9, respectively.
Compounds 22 and 8 were characterized by UV-visible spectroscopy (FIG. 16). Absorbance was measured using 15 μM solutions of each compound in a solution that was 90% aqueous, 10% DMSO. The peaks at 610 nm (light dashed line) and 685 nm (light solid line) represent the anions of compounds 22 and 8, respectively, in NaOH (pH 12). The peaks at 605 nm (heavy dashed line) and 805 nm (heavy solid line) represent the neutral forms of compounds 22 and 8 at pH 7.4, respectively.
Compounds 20a and 15a were characterized by UV-visible spectroscopy (FIG. 17). Absorbance was measured using 15 μM solutions of each compound in a solution that was 90% aqueous, 10% DMSO. The peaks at 545 nm (light dashed line) and 595 nm (light solid line) represent the respective anions, compounds 20c and 15h, in NaOH (pH 12).
Compound 15b (free amino) was characterized by UV-visible spectroscopy (FIG. 18), and compared to C.SNARF-5 (literature, SNARF=seminaphthorhodafluor). Absorbance was measured using a 15 μM solution of compound 15b in a solution that was 90% aqueous, 10% DMSO. The peak at 535 nm (heavy line) represents the predominantly phenolic form of 15b at pH 6. The peak at 615 nm (light line) represents the phenoxide of compound 15b at in NaOH (pH12). In comparison, C.SNARF-5 produces a peak at 550 nm (anionic form) and a peak at 485 nm (neutral form) (Whitaker et al., Anal. Biochem. 1991, 194, 330-344).
Absorbance was measured using 15 μM solutions of compound 15d in a solution that was 90% aqueous, 10% DMSO. The peak at 570 nm (heavy line) represents the predominantly neutral form of 15d at pH 6. The peak at 630 nm (light line) represents the phenoxide of compound 15d in NaOH (pH 12).
Compounds 20b and 15g were characterized by UV-visible spectroscopy (FIG. 20). Absorbance was measured using 15 μM solutions of each compound in a solution that was 90% aqueous, 10% DMSO. The peaks at 540 nm (dashed line) and 570 nm (solid line) represent the cations of compounds 20b and 15g, respectively, at pH 7.4.

[7] = DMSO:buffer 1:1, pH 7.4 phosphate buffer 12.5 mM
[8] = DMSO:buffer 1:9, pH 7.4 phosphate buffer 12.5 mM

Compound	Quenching of emission (PET) of the free boronic acid [3]	Brightness ([3]; DMSO:buffer 1:1)	Em ([3]; DMSO:buffer 1:1)	Ex ([3]; DMSO:buffer 1:1)	Q.Y. ([3]; DMSO:buffer 1:1)	ε ([3]; DMSO:buffer 1:1)	Abs [3, 7]	Brightness ([3]; DMSO:buffer 1:9)	Em ([3]; DMSO:buffer 1:9)	Ex ([3]; DMSO:buffer 1:9)	Q.Y. ([3]; DMSO:buffer 1:9)	ε ([3]; DMSO:buffer 1:9)	Abs [3, 8]	other results
COC(=O)c1ccccc1-c1c2ccc(=O)cc-2oc2c1ccc1cccc(OC)c12 [Compound 16a, methyl 2-(1-methoxy-10-oxo-10H-benzo[c]xanthen-7-yl)benzoate]	–	–	–	–	–	–	–	–	–	–	–	–	–	Quantum yield ([1]; 7.5 μM, 10:90 DMSO:aqueous): 0.4649; Quantum yield relative to anion 20c ([1]; 7.5 μM, 10:90 DMSO:aqueous): > 2 times; Quantum yield relative to neutral compound 15a ([1]; 7.5 μM, 10:90 DMSO:aqueous): 40 times
O=C(O)c1ccccc1-c1c2ccc(=NCc3ccccc3B(O)O)cc-2oc2c1ccc1cc(NCc3ccccc3B(O)O)ccc12 [Compound 51, seminaphthorhodamine bis-boronic acid]	slightly quenched	8037	643 nm	580 nm	0.35	23096 M⁻¹ cm⁻¹	579 nm	3032^e	638 nm	568 nm	0.15	20326 M⁻¹ cm⁻¹	560 nm	Increase in absorbance [2]: approximately 1.5 fold; Increase in fluorescence [2]: approximately 1.5 fold
O=C(O)c1ccccc1-c1c2ccc3cc(NCc4ccccc4B(O)O)ccc3c2oc2c1ccc1cc(=NCc3ccccc3B(O)O)ccc12 [Compound 53, naphthorhodamine bis-boronic acid]	nearly completely quenched	292^g	700 nm	624 nm	0.18	1616 M⁻¹ cm⁻¹	616 nm	43^d,f	692 nm	612 nm	0.004	10759 M⁻¹ cm⁻¹	628 nm	Estimated quantum yield after binding ([4]; DMSO:buffer 1:9): 0.186; Increase in absorbance at 630 nm ([4]; DMSO:buffer 1:9, highest concentration of fructose): less than 3 fold
COC(=O)c1ccccc1-c1c2ccc(=O)cc-2oc2c1ccc1cccc(O)c12 [Compound 15h]	–	–	–	–	–	–	–	–	–	–	–	–	–	Enhancement of the Stokes shift by 3-1 transposition [5]: about 70 nm; Longest wavelength emission ([5]; NaOH (pH 12), anion/phenoxide): 760 nm; Quantum yield ([1]; aqueous solution): less than 1%; Red shift of absorption spectra from 3-1 transposition versus known regiochemistry ([6]; depending on the ionization state): 50 nm; Absorbance peak ([6]; NaOH (pH 12), anionic/phenoxide form): 595 nm and 599 nm
